# Tests used:
# Assay type in all cases: biochemical
# CDK6/Cyclin D3 = CDK6/Cyclin D3 (Homo sapiens, UniProt Q00534); test: Kinase activity assay, CDK6/Cyclin D3 (tested in a similar manner); conditions: tested in a similar manner to CDK4/cyclin D3
# Procedure: (§1) The inhibitory effect of compounds against the kinase CDK4/cyclin D3 was detected by Caliper Mobility Shift Assay method. The final concentration of the compounds to be tested was set at 10 concentrations starting from 1 μM by 3-fold serial dilution. 5 μL of compounds at 5-fold final concentration and 10 μL of CDK4/cyclin D3 kinase solution at a final concentration of 10 nM was added to a 384-well reaction plate, respectively. The plate was pre-incubated for 10 min at room temperature (with negative control wells containing 10 μL of kinase buffer and 5 μL of 5% DMSO; positive control wells containing 10 μL of kinase solution and 5 μL of 5% DMSO). The reaction was initiated by adding 10 μL of ATP at a final concentration of 250 μM and the corresponding substrate peptide mixture at room temperature for 150 minutes. 30 μL of stop detection solution containing EDTA was added to stop the kinase reaction. Caliper EZ Reader was used to read the conversion rate. Inhibition rate %=(average conversion rate of positive control %−conversion rate of sample %)/(average conversion rate of positive control %−average conversion rate of negative control %). wherein: negative control wells represent the conversion rate readings of wells without enzymatic activity; positive control wells represent conversion readings for wells with no compound inhibition. The log(inhibitor) vs. response—Variable slope of the analysis software GraphPad Prism 5 was used with log concentration value as the X-axis and the percent inhibition rate as the Y-axis to fit the dose-response curve, the IC50 value of each compound on the enzyme activity was thus obtained. Calculation formula: Y=Bottom+(Top−Bottom)/(1+10^((Log IC50−X)*HillSlope)).
# (§2) The IC50 values for CDK6/Cyclin D3 and CDK2/Cyclin A2 of compounds of the present disclosure were tested in a similar manner.
# CDK2/Cyclin A2 = CDK2/Cyclin A2 (Homo sapiens, UniProt P24941); test: Kinase activity assay, CDK2/Cyclin A2 (tested in a similar manner); conditions: tested in a similar manner to CDK4/cyclin D3
# Procedure: as §1, §2
# CDK4/cyclin D3 = CDK4/cyclin D3 (Homo sapiens, UniProt P11802); test: Kinase activity assay, Caliper Mobility Shift Assay, CDK4/cyclin D3; conditions: 10 nM kinase, ATP 250 μM, 150 minutes at room temperature
# Chain of CDK4/cyclin D3 (P11802 whole entry, species assumed): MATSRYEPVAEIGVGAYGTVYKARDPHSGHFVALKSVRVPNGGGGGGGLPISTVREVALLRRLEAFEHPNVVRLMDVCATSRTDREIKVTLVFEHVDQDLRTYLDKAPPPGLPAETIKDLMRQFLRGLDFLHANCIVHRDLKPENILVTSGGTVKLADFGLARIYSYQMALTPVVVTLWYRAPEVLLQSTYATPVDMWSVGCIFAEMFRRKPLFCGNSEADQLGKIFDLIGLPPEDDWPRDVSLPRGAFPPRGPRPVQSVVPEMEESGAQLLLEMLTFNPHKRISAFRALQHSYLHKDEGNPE
# Chain of CDK4/cyclin D3 (P30281 whole entry partner, species assumed): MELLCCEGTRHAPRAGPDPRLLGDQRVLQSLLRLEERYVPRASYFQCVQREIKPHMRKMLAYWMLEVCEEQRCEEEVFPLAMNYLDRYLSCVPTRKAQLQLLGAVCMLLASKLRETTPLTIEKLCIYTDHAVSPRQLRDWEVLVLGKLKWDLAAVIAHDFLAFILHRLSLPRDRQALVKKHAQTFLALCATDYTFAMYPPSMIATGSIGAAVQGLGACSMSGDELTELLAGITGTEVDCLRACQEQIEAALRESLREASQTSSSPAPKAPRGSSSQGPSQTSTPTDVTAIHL
# Procedure: as §1
# Chain of CDK6/Cyclin D3 (Q00534 whole entry, species assumed): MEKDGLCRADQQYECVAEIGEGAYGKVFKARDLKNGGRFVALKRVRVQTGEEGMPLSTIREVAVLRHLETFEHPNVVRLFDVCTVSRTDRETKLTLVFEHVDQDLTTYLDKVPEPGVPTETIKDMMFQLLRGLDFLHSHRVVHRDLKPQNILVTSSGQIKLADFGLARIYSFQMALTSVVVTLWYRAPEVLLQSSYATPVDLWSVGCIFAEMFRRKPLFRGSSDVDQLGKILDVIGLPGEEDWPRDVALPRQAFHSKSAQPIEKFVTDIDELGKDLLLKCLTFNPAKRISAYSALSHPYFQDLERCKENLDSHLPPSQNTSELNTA
# Chain of CDK6/Cyclin D3 (P30281 whole entry partner, species assumed): as the sequence (P30281 whole entry partner, species assumed) above
IC50 (CDK6/Cyclin D3) [nM],IC50 (CDK2/Cyclin A2) [nM],IC50 (CDK4/cyclin D3) [nM],Compound
340,244,98,"COc1cc(N2CCN(C)CC2)ccc1Nc1ncc2ccc3onc(C(C)C)c3c2n1 [Compound I-31, 9-isopropyl-N-(2-methoxy-4-(4-methylpiperazin-l-yl)phenyl)isoxazolo [5,4-H]quinazolin-2-amine]"
21,10,7,"CC(C)c1noc2c1-c1nc(Nc3ccc(N4CCNCC4)c(F)c3)ncc1CC2 [Compound I-38, N-(3-fluoro-4-(piperazin-1-yl)phenyl)-9-isopropyl-5,6-dihydroisoxazolo[5,4-H] quinazolin-2-amine]"
34,22,20,"CC(C)c1noc2ccc3cnc(Nc4ccc(N5CCOCC5)c(F)c4)nc3c12 [Compound I-36, N-(3-fluoro-4-morpholinophenyl)-9-isopropylisoxazolo[5,4-H] quinazolin-2-amine]"
8,6,3,"CC(C)c1noc2ccc3cnc(Nc4ccc(N5CCNCC5)cc4)nc3c12 [Compound I-27, 9-isopropyl-N-(4-(piperazin-1-yl)phenyl)isoxazolo[5,4-H]quinazolin-2-amine]"
8,10,3,"CCN1CCN(c2ccc(Nc3ncc4ccc5onc(C(C)C)c5c4n3)cc2F)CC1 [Compound I-35, N-(4-(4-ethylpiperazin-1-yl)-3-fluorophenyl)-9-isopropylisoxazolo[5,4-H]quinazolin-2-amine]"
17,11,6,"CC(C)c1noc2c1-c1nc(Nc3ccc(N4CCN(C)CC4)c(F)c3)ncc1CC2 [Compound I-39, N-(3-fluoro-4-(4-methylpiperazin-1-yl)phenyl)-9-isopropyl-5,6-dihydroisoxazolo[5,4-H]quinazolin-2-amine]"
4,10,2,"CC(C)c1noc2ccc3cnc(Nc4ccc(OCCN(C)C)cc4)nc3c12 [Compound I-44, N-(4-(2-(dimethylamino)ethoxy)phenyl)-9-isopropylisoxazolo[5,4-h]quinazolin-2-amine]"
7,10,3,"CC(C)c1noc2ccc3cnc(Nc4ccc(N5CCNCC5)c(F)c4)nc3c12 [Compound I-33, N-(3-fluoro-4-(piperazin-1-yl)phenyl)-9-isopropylisoxazolo[5,4-H] quinazolin-2-amine]"
36,10,14,"CC(C)c1noc2ccc3cnc(Nc4ccc(N5CCOCC5)cc4)nc3c12 [Compound I-29, 9-isopropyl-N-(4-morpholinophenyl) isoxazolo[5,4-H]quinazolin-2-amine]"
5,4,1,"CC(C)c1noc2ccc3cnc(Nc4ccc(C(=O)N5CCN(C)CC5)cc4)nc3c12 [Compound I-43, (4-((9-isopropylisoxazolo[5,4-H]quinazolin-2-yl)amino)phenyl) (4-methylpiperazin-1-yl)methanone]"
5,4,2,"CCN1CCN(c2ccc(Nc3ncc4ccc5onc(C(C)C)c5c4n3)cc2)CC1 [Compound I-28, N-(4-(4-ethylpiperazin-1-yl)phenyl)-9-isopropylisoxazolo[5,4-h] quinazolin-2-amine]"
6,10,2,"CC(C)c1noc2ccc3cnc(Nc4cccc(S(N)(=O)=O)c4)nc3c12 [Compound I-40, 3-((9-isopropylisoxazolo[5,4-h]quinazolin-2-yl)amino)benzenesulfonamide]"
9,5,3,"CC(C)c1noc2ccc3cnc(Nc4ccc(C(=O)N5CCNCC5)cc4)nc3c12 [Compound I-42, (4-((9-isopropylisoxazolo[5,4-H]quinazolin-2-yl)amino)phenyl) (piperazin-1-yl)methanone]"

# Source: US12600731B2, “Isoxazolo[5,4-H]quinazoline compounds as protein kinase inhibitors” (CHENGDU CYNOGEN BIO-PHARMACEUTICAL TECHNOLOGY CO., LTD., priority 2019, dated 2026)
